The record followed here is the NIST ThermoML archive (doi:10.1016/j.jct.2013.10.010).

Structures are written as SMILES. ± gives the expanded uncertainty stated by the source.

Series [1] is described as follows: φn = volume fraction of the nth substance listed. The following applies: 298.15 K, Wilhelmy Plate Method.
For series [2] the following is noted: 298.15 K, Wilhelmy Plate Method.

`OCCO` [1,2-ethanediol] + O: the surface tension liquid-gas (in general, the work needed to enlarge the surface of a liquid by unit area) in series [1] (φ1 = 0.1) is recorded as 68.3 ± 0.4 mN/m; in series [1] (φ1 = 0.2) it was 64.8 ± 0.4 mN/m; in series [1] (φ1 = 0.3) it was 61.5 ± 0.4 mN/m.
In the same order, the values of `C1COCCO1` [1,4-dioxane] + O are 54 ± 0.4 mN/m, 52 ± 0.4 mN/m and 46.6 ± 0.4 mN/m.
As for `O` [water], the surface tension liquid-gas in series [2] is given as 71.8 ± 0.4 mN/m.
Turning to `O` [water] + C1COCCO1, in series [1] (φ2 = 0), the surface tension liquid-gas was found to be 71.8 ± 0.4 mN/m.
Still for that read-out and setting: the result for `O` [water] + OCCO reads 71.8 ± 0.4 mN/m.
